Test results from US6376510B1, “Neuromuscular relaxants” (Newlaxant LLC, priority 1997, dated 2002).
Each block holds one compound with its values, some of them ahead of it.

Tests used:
[1] = tested on: anesthetized rats (evoked responses of anterior tibial muscle); experiment: Muscle relaxant (neuromuscular blocking) properties, anesthetized rat (Example 9, Table 9); conditions: rat; for ED50: intravenous dose causing 50% neuromuscular block, spread in brackets; for RI (recovery index): spontaneous recovery, 25-75% neuromuscular response; for Onset: time to 80-85% neuromuscular block
Text: The data on muscle relaxant action were obtained on anesthetized rats, and when indicated, also on juvenile pigs
Adult, male albino rats were anesthetized with pentobarbital injected intraperitoneally. Juvenile, Duroc pigs 9-12 kg body weight were anesthetized with Chloralose Nembutal sodium mixture intraperitoneally after deep sedation with inhaled halothane. The trachea was cannulated for artificial respiration via a small animal respirator. The carotid artery was cannulated for recording blood pressure via a transducer and heart rate by a cardiotachograph on a polygraph. One external jugular vein was cannulated for i.v. drug administration. Neuromuscular function was monitored by electromyography, recording evoked responses from the anterior tibial muscle as a result of supramaximal nerve stimuli consisting of single or “train-of-four” rectangular pulses of 0.1-0.2 msec duration every 10-12 seconds, delivered to the sciatic or common peroneal nerve by a laboratory nerve stimulator. Another mode of stimulation included repeated single stimuli delivered at 0.1 Hz or 1 Hz. […] The agents were dissolved in physiologic saline and injected intravenously at appropriate time intervals. The intensity, onset, and duration of neuromuscular block and its type were determined with each agent. Through administering several doses, the doses corresponding to 50%, 80% and 90% neuromuscular block were determined. All agents were compared with selected standard neuromuscular blocking compounds, e.g., rocuronium.
(§1) Onset=time in minutes to 80-85% neuromuscular block.
(§2) RI=recovery index, minutes, spontaneous recovery, 25-75% neuromuscular response.
(§3) VB=vagal block, %, at 80-85% neuromuscular blocking dose.
HR=change in heart rate, %, at 80-85% neuromuscular blocking dose.
BP=change in arterial blood pressure, %, at 80-85% neuromuscular blocking dose.

[2] = tested on: anesthetized rats (evoked responses of anterior tibial muscle); experiment: In vivo neuromuscular block and cardiovascular side effects, anesthetized rat (Example 8, Table 3); conditions: rat
Method in brief: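 Pentobarbital-anesthetized (i.p.), ventilated adult male rats given saline-dissolved agents i.v.; anterior tibial EMG responses to supramaximal single or train-of-four sciatic/peroneal stimuli, plus 0.1 or 1 Hz stimulation. Doses for 50%, 80%, 90% block derived. Onset: minutes to 80-85% block; RI: 25-75% spontaneous recovery; vagal block, heart rate and blood pressure changes (%) at 80-85% blocking dose.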

anesthetized monkeys = experiment: In vivo neuromuscular block and cardiovascular side effects, monkey (Example 8, Table 6)
Text: Both electromyographic and mechanomyographic responses can be quantified.
The techniques described under a) and b) were employed in other species as needed with the modification that juvenile pigs were initially anesthetized with inhalation of halothane (Table 5) and monkeys were initially sedated with intramuscular ketamine injections prior to inducing and maintaining general anesthesia using pentobarbital and propofol administered intravenously (Table 6).

[3] = tested on: anesthetized cats (evoked responses of anterior tibial muscle); experiment: animal or person
Text: a) Adult, male albino rats were anesthetized with pentobarbital injected intraperitoneally. The trachea was cannulated for artificial respiration via a small animal respirator. The carotid artery was cannulated for recording blood pressure via a transducer and heart rate by a cardiotachograph on a polygraph. One external jugular vein was cannulated for i.v. drug administration. Neuromuscular function was monitored by electromyography, recording evoked responses from the anterior tibial muscle as a result of supramaximal nerve stimuli consisting of single or “train-of-four” rectangular pulses of 0.1-0.2 msec duration every 10-12 seconds, delivered to the sciatic or common peroneal nerve by a laboratory nerve stimulator. Another mode of stimulation included repeated single stimuli delivered at 0.1 Hz or 1 Hz. […] The agents were dissolved in physiologic saline and injected intravenously at appropriate time intervals. The intensity, onset, and duration of neuromuscular block and its type were determined with each agent. Through administering several doses, the doses corresponding to 50%, 80% and 90% neuromuscular block were determined. All agents were compared with selected standard neuromuscular blocking compounds, e.g. succinylcholine, pancuronium, mivacurium, or rocuronium.
as §1, §2, §3
ΔHR=change in heart rate, %, at 80-85% neuromuscular blocking dose.
ΔBP=change in arterial blood pressure, %, at 80-85% neuromuscular blocking dose.
b) Adult cats were anesthetized with a mixture of 70 mg/kg alpha chloralose and 0.5 g/kg ethylurethane intraperitoneally. One thigh was fixed in a vertical position by means of a pin at the lower end of the femur. Needle electrodes were placed on the sciatic or the common peroneal nerve. A tendon of the anterior tibial muscle was attached to a force transducer and the muscle responses evoked, as described under a), were recorded. Both electromyographic and mechanomyographic responses can be quantified. Blood pressure and heart rate changes were recorded from appropriately cannulated arteries via a blood pressure transducer and cardiotachograph.

[4] = tested on: anesthetized juvenile pigs; experiment: animal or person; format: in vivo; conditions: pig
Method in brief: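 Electromyographic and mechanomyographic responses quantified. Monkeys sedated with intramuscular ketamine, then general anesthesia with intravenous pentobarbital and propofol; juvenile pigs induced with inhaled halothane.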

rabbits = experiment: In vivo neuromuscular block and cardiovascular side effects, rabbit (Example 8, Table 7)
[5] = at 80-85% neuromuscular blocking dose
[6] = intravenous dose causing 50% neuromuscular block
[7] = spontaneous recovery, 25-75% neuromuscular response
[8] = time to 80-85% neuromuscular block

Compound: CC(=O)Oc1ccc(C[N+](C)(C)C2CCC(OC(=O)/C=C/C(=O)OC3CCC([N+](C)(C)Cc4ccc(OC(C)=O)c(OC(C)=O)c4)CC3)CC2)cc1OC(C)=O.[Br-].[Br-] (stereo not shown) [Bis[4-dimethylaminocyclohexyl]fumarate bis(3,4-diacetoxybenzyl bromide)]
% VB at ED80 nmb (vagal block) ([1]; in vivo): 65 (18) % | BP (change in arterial blood pressure) ([1]; in vivo): −4 (3) % | HR (change in heart rate) ([1]; in vivo): +6 (3) % | ED50 [1]: 2125 (475) μg/kg | RI (recovery index) [1]: 1.5 (0.1) min | Onset [1]: 1.3 (0.1) min

Compound: COc1cc(C[N+](C)(C)C2CCC(OC(=O)CCCC(=O)OC3CCC([N+](C)(C)Cc4ccc(OC(C)=O)c(OC)c4)CC3)CC2)ccc1OC(C)=O.[Br-].[Br-] (stereo not shown) [Bis[4-dimethylaminocyclohexyl]glutarate bis(4-acetoxy-3-methoxybenzyl bromide)]
% VB at ED80 nmb (vagal block) [1, 5]: 73 (9) % | BP (change in arterial blood pressure) [1, 5]: −14 (5) % | HR (change in heart rate) [1, 5]: −5 (2) % | ED50 [1]: 2075 (188) μg/kg | RI (recovery index) [1]: 0.9 (0.05) min | Onset [1]: 0.84 (0.06) min

Compound: Bis[N-(4-acetoxy-3-methoxybenzyl)-6-azabicyclo[3.2.1]octanium-3-yl]-glutarate dibromide
% VB at ED80 nmb (vagal block) ([1]; in vivo): 68 (96) % | BP (change in arterial blood pressure) ([1]; in vivo): +12 (5) % | HR (change in heart rate) ([1]; in vivo): 0% | ED50 [1]: 1425 (161) μg/kg | RI (recovery index) [1]: 0.65 (0.05) min | Onset [1]: 0.53 (0.04) min

Compound: Bis[N-(3,4-diacetoxybenzyl)-6-azabicyclo[3.2.1]octanium-3-yl]glutarate dibromide
% VB at ED80 nmb (vagal block) ([1]; in vivo): 19 (4) % | BP (change in arterial blood pressure) ([1]; in vivo): 0% | HR (change in heart rate) ([1]; in vivo): 0% | ED50 [1]: 440 (39) μg/kg | RI (recovery index) [1]: 0.4 (0.05) min | Onset [1]: 0.55 (0.05) min

Compound: CC(=O)Oc1ccc(C[N+]2(C)C3CCC2CC(OC(=O)C2C4C=CC(C4)C2C(=O)OC2CC4CCC(C2)[N+]4(C)Cc2ccc(OC(C)=O)c(OC(C)=O)c2)C3)cc1OC(C)=O.[Br-].[Br-] (stereo not drawn) [bis[N-(3,4-diacetoxybenzyl)tropanium-3α-yl]trans-3,6-endomet] [bis[N-(3,4-diacetoxybenzyl)tropanium-3α-yl]trans-3,6-endomethylene-1,2,3,6-tetrahydrophthalate dibromide]
VB (vagal block) [2, 5]: 32% | ΔBP (change in arterial blood pressure) [2, 5]: 0% | ΔH (change in heart rate) [2, 5]: 0% | ED50 [2, 6]: 0.084 mg/kg | RI (recovery index) [2, 7]: 0.5 min | Onset [2, 8]: 0.65 min | ΔBP (change in arterial blood pressure) (anesthetized monkeys; in vivo): 0% | ΔH (change in heart rate) (anesthetized monkeys; in vivo): 0% | ED50 (anesthetized monkeys; [6]): 0.06 mg/kg | RI (recovery index) (anesthetized monkeys; [7]): 0.65 min | Onset (anesthetized monkeys; [8]): 0.8 min | ED50 ([3]; cat, intravenous dose causing 50% neuromuscular block): 0.12 mg/kg | RI (recovery index) ([3]; cat, spontaneous recovery, 25-75% neuromuscular response): 0.5 min | Onset ([3]; cat, time to 80-85% neuromuscular block): 0.9 min | VB (vagal block) ([3]; in vivo): 30% | ΔBP (change in arterial blood pressure) ([3]; in vivo): −30% | ΔH (change in heart rate) ([3]; in vivo): −12% | VB (vagal block) ([4]; in vivo): 42% | ΔBP (change in arterial blood pressure) ([4]; in vivo): 0% | ΔH (change in heart rate) ([4]; in vivo): 0% | ED50 [4, 6]: 0.197 mg/kg | RI (recovery index) [4, 7]: 0.9 min | Onset [4, 8]: 0.65 min | ΔBP (change in arterial blood pressure) (rabbits; in vivo): 0% | ΔH (change in heart rate) (rabbits; in vivo): 0% | ED50 (rabbits; [6]): 0.096 mg/kg | RI (recovery index) (rabbits; [7]): 0.7 min | Onset (rabbits; [8]): 0.8 min

Compound: Bis[4-dimethylaminocyclohexyl]glutarate bis(benzyl bromide) [reference compound]
ED50 [1]: 2500 µg/kg | RI (recovery index) [1]: 1.65 (0.1) min | Onset [1]: 1.6 (0.1) min

Compound: Bis[4-dimethylaminocyclohexyl]fumarate bis(4-acetoxy-3-methoxybenzyl bromide)
ED50 [1]: 2138 (128) μg/kg | RI (recovery index) [1]: 0.65 (0.05) min | Onset [1]: 1.3 (0.05) min

Compound: CC(=O)Oc1ccc(C[N+](C)(C)C2CCC(OC(=O)CCCC(=O)OC3CCC([N+](C)(C)Cc4ccc(OC(C)=O)c(OC(C)=O)c4)CC3)CC2)cc1OC(C)=O.[Br-].[Br-] (stereo not shown) [Bis[4-dimethylaminocyclohexyl]glutarate bis(3,4-diacetoxybenzyl bromide)]
% VB at ED80 nmb (vagal block) ([1]; in vivo): 64 (22) % | BP (change in arterial blood pressure) ([1]; in vivo): −13 (6) % | HR (change in heart rate) ([1]; in vivo): −5 (3) % | ED50 [1]: 700 (122) μg/kg | RI (recovery index) [1]: 0.8 (0.07) min | Onset [1]: 0.75 (0.05) min

Compound: Bis[N-(4-acetoxy-3,5-dimethoxybenzyl)-6-azabicyclo[3.2.1]octanium-3-yl]glutarate dibromide
% VB at ED80 nmb (vagal block) ([1]; in vivo): 75 (5) % | BP (change in arterial blood pressure) ([1]; in vivo): +21 (2) % | HR (change in heart rate) ([1]; in vivo): 0% | ED50 [1]: 3050 (193) μg/kg | RI (recovery index) [1]: 1.4 (0.1) min | Onset [1]: 0.75 (0.05) min

% VB at ED80 nmb (vagal block) ([1]; in vivo): 63 (7) %
Compound: Bis[N-(3,4-dipropionyloxybenzyl)-6-azabicyclo[3.2.1]octanium-3-yl]glutarate dibromide
BP (change in arterial blood pressure) ([1]; in vivo): +8 (2) % | HR (change in heart rate) ([1]; in vivo): 0% | ED50 [1]: 1002 (174) μg/kg | RI (recovery index) [1]: 0.47 (0.03) min | Onset [1]: 0.5 (0.03) min
